Assay results as given in ChEMBL document CHEMBL3885881, “DrugMatrix”.

Species: Rattus norvegicus
Assay: DrugMatrix - Regimen: Daily Repeat
Assay type: toxicity, organism-based, Sprague-Dawley
Parameters: regimen Daily Repeat, gender Male, age 6-8 weeks
Conditions: in vivo, po, route oral GAVAGE, […]; for ABSOLUTE BASOPHIL / ABSOLUTE EOSINOPHIL / ABSOLUTE LYMPHOCYTE / ABSOLUTE MONOCYTE / ABSOLUTE SEGMENTED NEUTROPHIL / BASOPHIL / EOSINOPHIL / ERYTHROCYTE COUNT / HEMATOCRIT / HEMOGLOBIN / LEUKOCYTE COUNT / LYMPHOCYTE / MEAN CORPUSCULAR HEMOGLOBIN / MEAN CORPUSCULAR HEMOGLOBIN CONCENTRATION / MEAN CORPUSCULAR VOLUME / MONOCYTE / NEUTROPHIL / NUCLEATED RED BLOOD CELLS / PLATELET COUNT: tissue Blood; for ALANINE AMINOTRANSFERASE / ALBUMIN / ALKALINE PHOSPHATASE / ASPARTATE AMINOTRANSFERASE / BLOOD UREA NITROGEN / CARBON DIOXIDE / CHLORIDE / CHOLESTEROL / CREATINE PHOSPHOKINASE / CREATININE / GLUCOSE / LACTATE DEHYDROGENASE / LIPASE / PHOSPHORUS / POTASSIUM / SODIUM / TOTAL BILIRUBIN / TOTAL PROTEIN / URIC ACID: tissue Plasma
[1] = 0 mg/kg, 72 h, dose level Control, time 3 day
[2] = 0 mg/kg, 120 h, dose level Control, time 5 day
[3] = 80 mg/kg, 72 h, dose level Low, time 3 day

## CC(C)(Oc1ccc(C2CCCc3ccccc32)cc1)C(=O)O (centres undefined) [NAFENOPIN]
[1]
  ABSOLUTE BASOPHIL: 0 CELLS/uL
  ABSOLUTE EOSINOPHIL: 47.67 CELLS/uL
  ABSOLUTE LYMPHOCYTE: 11079 CELLS/uL
  ABSOLUTE MONOCYTE: 251.67 CELLS/uL
  ABSOLUTE SEGMENTED NEUTROPHIL: 1505 CELLS/uL
  BASOPHIL: 0%
  EOSINOPHIL: 0.33%
  ERYTHROCYTE COUNT: 5.31 x10E6/uL
  HEMATOCRIT: 32.87%
  HEMOGLOBIN: 12.27 G/DL
  LEUKOCYTE COUNT: 12.88 x10E3/uL
  LYMPHOCYTE: 86.17%
  MEAN CORPUSCULAR HEMOGLOBIN: 23.2 pg
  MEAN CORPUSCULAR HEMOGLOBIN CONCENTRATION: 37.37 G/DL
  MEAN CORPUSCULAR VOLUME: 62.03 fL
  MONOCYTE: 2%
  NEUTROPHIL: 11.5%
  NUCLEATED RED BLOOD CELLS: 0 /100WBC
  PLATELET COUNT: 956.5 x10E3/uL
  ALANINE AMINOTRANSFERASE: 69.67 u/L
  ALBUMIN: 4.15 G/DL
  ALKALINE PHOSPHATASE: 415.33 u/L
  ASPARTATE AMINOTRANSFERASE: 93.17 u/L
  BLOOD UREA NITROGEN: 17.33 mg/dL
  CARBON DIOXIDE: 27.33 mmol/L
  CHLORIDE: 100.17 MEQ/L
  CHOLESTEROL: 76.5 mg/dL
  CREATINE PHOSPHOKINASE: 587 u/L
  CREATININE: 0.25 mg/dL
  GLUCOSE: 155.5 mg/dL
  LACTATE DEHYDROGENASE: 343.5 u/L
  LIPASE: 11.17 u/L
  PHOSPHORUS: 11.77 mg/dL
  POTASSIUM: 6.51 MEQ/L
  SODIUM: 140.93 MEQ/L
  TOTAL BILIRUBIN: 0.2 mg/dL
  TOTAL PROTEIN: 5.87 G/DL
  URIC ACID: 1.43 mg/dL
[2]
  ABSOLUTE BASOPHIL: 0 CELLS/uL
  ABSOLUTE EOSINOPHIL: 22.67 CELLS/uL
  ABSOLUTE LYMPHOCYTE: 12729.33 CELLS/uL
  ABSOLUTE MONOCYTE: 424.67 CELLS/uL
  ABSOLUTE SEGMENTED NEUTROPHIL: 2006.67 CELLS/uL
  BASOPHIL: 0%
  EOSINOPHIL: 0.17%
  ERYTHROCYTE COUNT: 5.48 x10E6/uL
  HEMATOCRIT: 33.32%
  HEMOGLOBIN: 12.73 G/DL
  LEUKOCYTE COUNT: 15.18 x10E3/uL
  LYMPHOCYTE: 83.83%
  MEAN CORPUSCULAR HEMOGLOBIN: 23.25 pg
  MEAN CORPUSCULAR HEMOGLOBIN CONCENTRATION: 38.22 G/DL
  MEAN CORPUSCULAR VOLUME: 60.85 fL
  MONOCYTE: 2.83%
  NEUTROPHIL: 13.17%
  NUCLEATED RED BLOOD CELLS: 0 /100WBC
  PLATELET COUNT: 909.83 x10E3/uL
  ALANINE AMINOTRANSFERASE: 57.67 u/L
  ALBUMIN: 4.03 G/DL
  ALKALINE PHOSPHATASE: 472.33 u/L
  ASPARTATE AMINOTRANSFERASE: 80.83 u/L
  BLOOD UREA NITROGEN: 14.67 mg/dL
  CARBON DIOXIDE: 31.83 mmol/L
  CHLORIDE: 96 MEQ/L
  CHOLESTEROL: 68 mg/dL
  CREATINE PHOSPHOKINASE: 281.67 u/L
  CREATININE: 0.19 mg/dL
  GLUCOSE: 147.33 mg/dL
  LACTATE DEHYDROGENASE: 210.83 u/L
  LIPASE: 11 u/L
  PHOSPHORUS: 11.63 mg/dL
  POTASSIUM: 6.06 MEQ/L
  SODIUM: 139.37 MEQ/L
  TOTAL BILIRUBIN: 0.17 mg/dL
  TOTAL PROTEIN: 5.82 G/DL
  URIC ACID: 1.12 mg/dL
[3]
  ABSOLUTE BASOPHIL: 0 CELLS/uL
  ABSOLUTE EOSINOPHIL: 91 CELLS/uL
  ABSOLUTE LYMPHOCYTE: 10987.33 CELLS/uL
  ABSOLUTE MONOCYTE: 229 CELLS/uL
  ABSOLUTE SEGMENTED NEUTROPHIL: 2392.67 CELLS/uL
  BASOPHIL: 0%
  EOSINOPHIL: 0.67%
  ERYTHROCYTE COUNT: 5.31 x10E6/uL
  HEMATOCRIT: 33.1%
  HEMOGLOBIN: 12.4 G/DL
  LEUKOCYTE COUNT: 13.7 x10E3/uL
  LYMPHOCYTE: 80.33%
  MEAN CORPUSCULAR HEMOGLOBIN: 23.37 pg
  MEAN CORPUSCULAR HEMOGLOBIN CONCENTRATION: 37.47 G/DL
  MEAN CORPUSCULAR VOLUME: 62.37 fL
  MONOCYTE: 1.67%
  NEUTROPHIL: 17.33%
  NUCLEATED RED BLOOD CELLS: 0 /100WBC
  PLATELET COUNT: 1097 x10E3/uL
  ALANINE AMINOTRANSFERASE: 88 u/L
  ALBUMIN: 4.7 G/DL
  ALKALINE PHOSPHATASE: 593 u/L
  ASPARTATE AMINOTRANSFERASE: 109.67 u/L
  BLOOD UREA NITROGEN: 15.33 mg/dL
  CARBON DIOXIDE: 25.67 mmol/L
  CHLORIDE: 102.33 MEQ/L
  CHOLESTEROL: 44.33 mg/dL
  CREATINE PHOSPHOKINASE: 372 u/L
  CREATININE: 0.23 mg/dL
  GLUCOSE: 141 mg/dL
  LACTATE DEHYDROGENASE: 370.67 u/L
  LIPASE: 10.67 u/L
  PHOSPHORUS: 12.4 mg/dL
  POTASSIUM: 6.4 MEQ/L
  SODIUM: 144.37 MEQ/L
  TOTAL BILIRUBIN: 0.1 mg/dL
  TOTAL PROTEIN: 5.57 G/DL
  URIC ACID: 1.3 mg/dL
